Paper PMC12951568, “Identifying Structural Factors Governing the Photodynamic Activity of Phthalocyanines” (Journal of Medicinal Chemistry, 2026)
Where two headings read alike, the source gives them in different places.

Tests used:
[1] = biological target: bovine serum albumin (BSA) (Bos taurus, UniProt P02769); assay: Interaction with bovine serum albumin (absorption and emission spectra in PBS); assay type: binding; settings: 1 μM Pc in PBS, BSA 17.5, 35 and 100 μM
[2] = system: HeLa (human cervical carcinoma); settings: 12 h incubation, Xe-lamp 15 min, λ > 570 nm, 11.2 J/cm^2; mean ± SD; determined previously under the same conditions at the same workplace and published; ref number not given; read-out: EC50 (nM) HeLa; cited from earlier work
[3] = Absorption and fluorescence emission spectra in DMF; assay type: physicochemical; settings: in DMF
Experimental: An absorption spectrum of 2.475 mL of solvent (water, DMF, or PBS) was taken (i.e., absorption spectrum of baseline); then, 25 μL of stock solution was added to reach the final concentration of 1 μM in the cuvette, and the absorption and emission spectra were taken. Baseline of the solvent was subtracted from the obtained absorption spectrum to get the final absorption spectrum of the sample.

[4] = Log P, partition between n-octanol and PBS; assay type: physicochemical; settings: partition coefficient between 1-octanol and PBS
Experimental: 400 μL portion of n-octanol and 400 μL of PBS buffer were mixed in a plastic Eppendorf vial. Then, 20 μL of the 100 μM stock solution of the sample (see above) was added to this mixture, vortexed for 5 min at rt, and then centrifuged for 10 min (10 000 rpm, rt). 50 μL of each of these layers was taken into 2.5 mL of DMF in a quartz cuvette, and their emission spectra (excitation wavelengths in Table ) were recorded. The log P value was then computed using the area under the curve of the emission spectra of n-octanol (F oct) and PBS buffer (F PBS) layers as follows: logP=log(Foct/FPBS) Triplicate measurements were performed, and the data reported are the mean of the obtained results.

[5] = system: MCF-7 (human breast adenocarcinoma); set-up: method as in number not printed in Table 2; settings: 12 h incubation, Xe-lamp 15 min, λ > 570 nm, 11.2 J/cm^2; mean ± SD; determined previously under the same conditions at the same workplace and published; ref number not given; cited from earlier work
[6] = Fluorescence lifetime in DMF; assay type: physicochemical
Text: 1 Photophysical Data of Investigated Derivatives in DMF ^a | column: τF1/ns; τF2/ns

[7] = system: SK-MEL-28 (human skin melanoma); assay: Photodynamic activity (phototoxicity, neutral red uptake) on SK-MEL-28; assay type: cell-based; settings: 12 h incubation, Xe-lamp 15 min, λ > 570 nm, 11.2 J/cm^2; mean ± SD; t.w. = this work
Experimental: (§1) Detailed in vitro studies involving subcellular localization and determination of the EC50 in three different cell lines (human cervical carcinoma–HeLa, human breast adenocarcinoma–MCF-7, and human skin melanoma–SK-MEL-28) were performed. A broadband light source (ozone-free 450 W Xe-lamp, Newport) equipped with the long-pass filter Schott OG570 was used (12.4 mW/cm^2, 15 min, 11.2 J/cm^2).
(§2) For the cytotoxicity experiments (phototoxicity), cells were seeded at 100 μL per well into 96-well plates (TPP, Switzerland) at a density of 7.5 × 10^3 (HeLa) or 1.0 × 10^4 (MCF-7 and SK-MEL-28) cells per well. Cells were left to grow for 24 h (until they reached confluency) in a controlled environment of a CO2 incubator (37 °C, 5% CO2 atmosphere, constant high humidity). Subsequently, studied compounds were added in a wide concentration range and incubated with the cells for 12 h. Cells were washed; fresh cell culture medium was added, and the cells were irradiated using a 450 W Xe lamp (Newport, USA). The lamp was equipped with a long pass filter (Newport OG570) and an 8 cm water filter (λ > 570 nm, 12.4 mW/cm^2, 15 min, 11.2 J/cm^2). Cellular viability was assessed after an additional 24 h by the neutral red (NR; Sigma, Merck, USA) uptake assay. At least three independent experiments, each in triplicate, were performed. The soluble NR was measured at λ = 540 nm using a Tecan Infinite 200 M plate reader (Tecan, Austria). The viability of each experimental group was expressed as the percentage of the untreated cells (100% viability) after subtraction of the signal from cells treated with a lethal dose of hydrogen peroxide (0% viability). […] EC50 values were calculated, and graphs were created by using GraphPad Prism 10.3.1 (Graph Pad software, USA).

[8] = Quantum yield of singlet oxygen production, comparative method with DPBF scavenger; assay type: physicochemical; settings: in DMF, ZnPc as reference
Experimental: Eight μL of the 100 μM stock solution of the dye in DMF (or DMF + water or water; see above) was added. A xenon lamp (100 W, ozone free XE DC short arc lamp, New port) was used to irradiate the sample while stirring. The incident light was filtered through a water filter (6 cm) and cut off filter OG530 eliminating heat and light under 523 nm, respectively. […] The decrease of DPBF in solution with irradiation time was monitored at 415 nm. The values of ΦΔ of the dyes were calculated by the following equation: φΔS=φΔ[…] is the slope of the plot of the dependence of ln([…] 0 and A t being the absorbances of the DPBF at 415 nm before irradiation and after irradiation time t, respectively. I aT is the total amount of light absorbed by the dye sample. Superscripts R and S indicate the reference and sample, respectively. I aT is calculated as a sum of intensities of the absorbed light I a at wavelengths from 523 to 850 nm (step 0.5 nm). Light under 523 nm is completely filtered by an OG530 filter, and light above 850 nm is not absorbed by the studied dye sample. I a at a given wavelength is calculated using Beer-Lambert'[…]) where I 0 is transmittance of the filter at the given wavelength and A is the absorbance of the dye at this wavelength. All experiments were performed three times, and the data presented is the mean value of the three obtained results with estimated error ± 10%.

[9] = system: HeLa (human cervical carcinoma); assay: Photodynamic activity (phototoxicity, neutral red uptake) on HeLa; assay type: cell-based
Experimental: as §1, §2

[10] = Fluorescence quantum yield, comparative method; assay type: physicochemical; settings: in DMF; ZnPc as reference
Experimental: The fluorescence quantum yields (ΦF) were determined by a comparative method with ZnPc as the reference (ΦF = 0.32 in THF). The ΦF values were calculated using the following formula: ϕFS=ϕFR(F^S/F^R)(1−10^−A^R/1−10^−A^S)(η^S/η^R)^2 where F is the integrated area under the emission spectrum and A is the absorbance at the excitation wavelength. Superscripts R and S indicate the reference and sample, respectively. η stands for the refractive index of the solvent. Absorption in the Q-band was kept below 0.05 to eliminate the inner filter effect. Excitation wavelengths were the same as those used for emission spectra (see above). The emission wavelengths were set to their emission maxima to avoid exceeding the detector limit with stimated error ± 15%.

[11] = system: MCF-7 (human breast adenocarcinoma); assay: Photodynamic activity (phototoxicity, neutral red uptake) on MCF-7; assay type: cell-based
Experimental: as §1, §2

[12] = in DMF; ref number not given; cited from earlier work
[13] = 12 h incubation, Xe-lamp 15 min, λ > 570 nm, 11.2 J/cm^2, mean ± SD, t.w. = this work

Sequence of bovine serum albumin (BSA) (P02769 25-607): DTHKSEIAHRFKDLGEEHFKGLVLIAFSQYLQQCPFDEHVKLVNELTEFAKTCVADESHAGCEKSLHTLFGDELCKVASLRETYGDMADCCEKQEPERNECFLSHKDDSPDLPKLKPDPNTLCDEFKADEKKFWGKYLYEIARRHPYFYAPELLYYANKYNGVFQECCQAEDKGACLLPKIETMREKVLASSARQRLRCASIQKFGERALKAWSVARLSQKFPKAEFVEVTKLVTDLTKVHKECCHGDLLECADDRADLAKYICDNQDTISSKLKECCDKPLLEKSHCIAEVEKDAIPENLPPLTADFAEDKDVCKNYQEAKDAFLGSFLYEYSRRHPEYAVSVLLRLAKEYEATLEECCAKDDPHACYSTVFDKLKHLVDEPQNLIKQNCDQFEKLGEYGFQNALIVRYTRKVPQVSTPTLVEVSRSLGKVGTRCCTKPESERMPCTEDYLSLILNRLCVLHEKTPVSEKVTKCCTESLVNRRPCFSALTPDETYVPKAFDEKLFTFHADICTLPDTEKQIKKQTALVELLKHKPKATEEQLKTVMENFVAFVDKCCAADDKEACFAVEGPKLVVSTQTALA

Row | SMILES | Interaction with BSA: disaggregation/monomerization and changes in absorption and fluorescence emission spectra [1] | EC50 [2] [nM] | λF, fluorescence emission maximum [3] [nm] | Log P [4] | EC50 [5] [nM] | τF1, fluorescence lifetime (relative amplitude in brackets) [6] | τF2, fluorescence lifetime (relative amplitude in brackets) [6] | EC50 [7] [nM] | ΦΔ, quantum yield of singlet oxygen production [8] | fold higher photodynamic activity vs symmetrical hydrophilic counterparts ([9]; HeLa, unsymmetrical anionic A1Zn, A2Zn vs A3Zn, A4Zn) | ΦF, fluorescence quantum yield [10] | ε, extinction coefficient [3] | λA, absorption maximum in the Q-band [3] [nm] | increase in activity of C12Zn in comparison with C3Zn (fold) ([11]; MCF-7 cells) | increase in activity of C12Zn in comparison with C3Zn (fold) ([9]; HeLa cells) | EC50 [11, 13] [nM] | EC50 [9, 13] [nM] | ΦΔ of the reference standard [12]
1 | O=C([O-])c1cc(Oc2cc3c(cc2Oc2cc(C(=O)[O-])cc(C(=O)[O-])c2)C2=Nc4c5ccccc5c5[n]4[Zn][n]4c(c6ccccc6c4=NC3=N2)=NC2=NC(=N5)c3ccccc32)cc(C(=O)[O-])c1.[Na+].[Na+].[Na+].[Na+] [A1Zn] | complete | 290 ± 78 | 682 | –2.70 | 453 ± 26 | 0.44 (15%) ns | 2.51 (85%) ns | 530 ± 30 | 0.26 | ~21 | 0.035 | – | – | – | – | – | – | –
2 | Cc1cc(Cn2cc[n+](C)c2)c(Oc2c3c(c(C)c(C)[n+]2C)C2=NC3=Nc3c4cc(SC(C)(C)C)c(SC(C)(C)C)cc4c4[n]3[Zn][n]3c(c5cc(SC(C)(C)C)c(SC(C)(C)C)cc5c3=N2)=NC2=NC(=N4)c3cc(SC(C)(C)C)c(SC(C)(C)C)cc32)c(Cn2cc[n+](C)c2)c1.[I-].[I-].[I-] [C2Zn] | – | 105 ± 34 | 718 | 1.38 | 65 ± 8 | 1.67 ns | – | 62 ± 11 | 0.70 | – | 0.30 | 177 880 M^–1cm^–1 | 708 | – | – | – | – | –
3 | CSc1cc2c(cc1SC)C1=Nc3c4cc(SC)c(SC)cc4c4[n]3[Zn][n]3c(c5cc(SC)c(SC)cc5c3=NC2=N1)=NC1=NC(=N4)c2cc(Oc3c(Cn4cc[n+](C)c4)cc(C)cc3Cn3cc[n+](C)c3)c(Oc3c(Cn4cc[n+](C)c4)cc(C)cc3Cn3cc[n+](C)c3)cc21.[I-].[I-].[I-].[I-] [C4Zn] | – | 79 ± 20 | 709 | 0.62 | 61 ± 9 | – | – | 108 ± 24 | 0.44 | – | 0.21 | 106 360 M^–1cm^–1 | 697 | – | – | – | – | –
4 | Cc1cc(Cn2cc[n+](C)c2)c(Oc2cc3c(cc2Oc2c(Cn4cc[n+](C)c4)cc(C)cc2Cn2cc[n+](C)c2)C2=Nc4c5cc(Oc6c(Cn7cc[n+](C)c7)cc(C)cc6Cn6cc[n+](C)c6)c(Oc6c(Cn7cc[n+](C)c7)cc(C)cc6Cn6cc[n+](C)c6)cc5c5[n]4[Zn][n]4c(c6cc(Oc7c(Cn8cc[n+](C)c8)cc(C)cc7Cn7cc[n+](C)c7)c(Oc7c(Cn8cc[n+](C)c8)cc(C)cc7Cn7cc[n+](C)c7)cc6c4=NC4=NC(=N5)c5cc(Oc6c(Cn7cc[n+](C)c7)cc(C)cc6Cn6cc[n+](C)c6)c(Oc6c(Cn7cc[n+](C)c7)cc(C)cc6Cn6cc[n+](C)c6)cc54)=NC3=N2)c(Cn2cc[n+](C)c2)c1.[I-].[I-].[I-].[I-].[I-].[I-].[I-].[I-].[I-].[I-].[I-].[I-].[I-].[I-].[I-].[I-] [C12Zn] | – | 37 ± 6 | 687 | –2.08 | 11 ± 3 | 0.62 (7%) ns | 2.23 (93%) ns | 45 ± 7 | 0.48 | – | 0.20 | 244 030 M^–1cm^–1 | 679 | 2 | 1.3 | – | – | –
5 | Cc1cc(Cn2c[n+](C)cn2)c(Oc2cc3c(cc2Oc2c(Cn4c[n+](C)cn4)cc(C)cc2Cn2c[n+](C)cn2)C2=Nc4c5cc(Oc6c(Cn7c[n+](C)cn7)cc(C)cc6Cn6c[n+](C)cn6)c(Oc6c(Cn7c[n+](C)cn7)cc(C)cc6Cn6c[n+](C)cn6)cc5c5[n]4[Zn][n]4c(c6cc(Oc7c(Cn8c[n+](C)cn8)cc(C)cc7Cn7c[n+](C)cn7)c(Oc7c(Cn8c[n+](C)cn8)cc(C)cc7Cn7c[n+](C)cn7)cc6c4=NC4=NC(=N5)c5cc(Oc6c(Cn7c[n+](C)cn7)cc(C)cc6Cn6c[n+](C)cn6)c(Oc6c(Cn7c[n+](C)cn7)cc(C)cc6Cn6c[n+](C)cn6)cc54)=NC3=N2)c(Cn2c[n+](C)cn2)c1.[I-].[I-].[I-].[I-].[I-].[I-].[I-].[I-].[I-].[I-].[I-].[I-].[I-].[I-].[I-].[I-] [C13Zn] | – | 12 ± 4 | 687 | –3.47 | 5.3 ± 0.8 | 0.60 (4%) ns | 2.27 (96%) ns | 56 ± 6 | 0.37 | – | 0.20 | 236 490 M^–1cm^–1 | 679 | – | – | – | – | –
6 | NCCc1ccc(Oc2cccc3c2C2=NC3=Nc3c4ccccc4c4[n]3[Zn][n]3c(c5ccccc5c3=N2)=NC2=NC(=N4)c3ccccc32)cc1 [C15Zn] | Partial monomerization | – | 684 | 3.32 | – | 1.23 (7%) ns | 2.96 (93%) ns | 25 ± 6 | 0.53 | – | 0.20 | 136 590 M^–1cm^–1 | 675 | – | – | 50 ± 8 | 74 ± 22 | –
7 | O=C([O-])c1c(Cl)c(Cl)c(Cl)c(Cl)c1-c1c2cc(I)c(=O)c(I)c-2oc2c(I)c([O-])c(I)cc12.[Na+].[Na+] [Rose Bengal] | – | – | – | – | – | – | – | – | – | – | – | – | – | – | – | – | – | 0.47
